Data taken from patent US20230190643A1, “IMPLANT FOR TREATMENT OF AN OCULAR CONDITION” (Allergan, Inc., priority 2015, published 2023).

Legend:
GC receptor = target: T1, GC receptor (Homo sapiens, UniProt P04150); conditions: GC receptor-binding (Tajika 2011b); cited from earlier work
T1 sequence (P04150 1-777): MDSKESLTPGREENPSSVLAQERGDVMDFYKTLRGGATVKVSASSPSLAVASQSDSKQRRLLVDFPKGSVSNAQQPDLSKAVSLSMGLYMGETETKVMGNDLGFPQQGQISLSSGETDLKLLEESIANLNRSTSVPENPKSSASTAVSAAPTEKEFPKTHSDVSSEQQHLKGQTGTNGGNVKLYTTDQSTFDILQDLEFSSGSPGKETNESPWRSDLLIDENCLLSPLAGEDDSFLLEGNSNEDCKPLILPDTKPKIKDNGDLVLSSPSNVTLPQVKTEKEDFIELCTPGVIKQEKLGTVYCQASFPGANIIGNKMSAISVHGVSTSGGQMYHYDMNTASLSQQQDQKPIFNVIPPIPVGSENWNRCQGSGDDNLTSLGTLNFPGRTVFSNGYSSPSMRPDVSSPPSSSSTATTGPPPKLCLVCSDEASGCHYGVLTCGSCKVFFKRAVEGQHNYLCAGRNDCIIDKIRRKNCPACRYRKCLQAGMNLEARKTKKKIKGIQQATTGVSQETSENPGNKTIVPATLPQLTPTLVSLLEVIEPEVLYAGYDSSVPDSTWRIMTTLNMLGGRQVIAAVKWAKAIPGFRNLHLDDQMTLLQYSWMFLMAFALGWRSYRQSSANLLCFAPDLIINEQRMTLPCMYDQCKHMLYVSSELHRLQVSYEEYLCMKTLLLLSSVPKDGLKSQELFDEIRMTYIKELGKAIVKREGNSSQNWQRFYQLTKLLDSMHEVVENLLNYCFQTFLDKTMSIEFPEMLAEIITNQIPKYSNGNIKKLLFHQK

rabbits = conditions: subcutaneous during organogenesis, cited from earlier work
CHL/IU = conditions: cited from earlier work
rodents and non-rodents = conditions: consistent between species; cited from earlier work
male and female rats = conditions: subcutaneous up to 10 μg/kg/day prior to and during mating; cited from earlier work
[1] = Impact of gamma irradiation (46 kGy) on difluprednate assay of implant formulations; format: physicochemical
Procedure: Terminal moist heat sterilization is not a viable method due to the fact that ENV905 is a solid dosage form designed to disintegrate in aqueous environments. Therefore, studies to evaluate gamma irradiation were conducted on early ENV905 formulations to determine if ionizing radiation was a viable option for a terminally sterilized drug product. ENV905 implants were exposed to gamma irradiation with a dose of 46 kGy per ISO 11137-2:2012 (Sterilization of Health Care Products—Radiation—Part 2: Establishing the Sterilization Dose). The implant formulations used for these studies consisted of a blend of difluprednate and PEGs.
Implants were individually packaged in HPLC vials with air headspace and polytetrafluoroethylene (PTFE)-lined screw caps. Ten individual implants (n=10) were tested for difluprednate assay.

mice = conditions: cited from earlier work
Ames test = conditions: cited from earlier work

SMILES | Ki (GC receptor) | embryotoxicity and teratogenicity (rabbits; 1-10 μg/kg/day) | NOEL for embryotoxic and teratogenic effects (rabbits) | teratogenic dose (rabbits) | genotoxicity in cultured mammalian cells CHL/IU (CHL/IU) | no-observed-effect-level (NOEL), subchronic and chronic toxicity tests (rodents and non-rodents) | fertility (male and female rats) | Degradation ([1]; Radiation Dose 46 kGy) | Difluprednate Assay ([1]; Radiation Dose 46 kGy) | Difluprednate Assay ([1]; Radiation Dose None) | in vivo micronucleus test (mice) | genotoxicity in vitro in the Ames test (Ames test)
CCCC(=O)O[C@]1(C(=O)CO)CC[C@H]2[C@@H]3C[C@H](F)C4=CC(=O)C=C[C@]4(C)[C@@]3(F)[C@@H](O)C[C@@]21C [Desacetyl Difluprednate (DFB), 6α,9-difluoroprednisolone 17-butyrate] | 61 pM | – | – | – | – | – | – | – | – | – | – | –
CCCC(=O)O[C@]1(C(=O)COC(C)=O)CC[C@H]2[C@@H]3C[C@H](F)C4=CC(=O)C=C[C@]4(C)[C@@]3(F)[C@@H](O)C[C@@]21C [Difluprednate (DFBA), Difluprednate] | 780 pM | embryotoxic (decrease in embryonic body weight and a delay in embryonic ossification) and teratogenic (cleft palate and skeletal anomalies) | 1 µg/kg/day | 10 µg/kg/day | not genotoxic | 1 to 1.25 µg/kg/day | did not impair fertility in either gender | 0.85 % Area | 97.13 % Area | 97.98 % Area | negative | not genotoxic
